Experimental data taken from PubChem BioAssay (NCI).
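Following 48 hours of exposure in 96-well plates, responses at five concentrations were used to interpolate endpoints linearly. TGI is the concentration that stops growth completely.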

Tests used:
Test in all cases: NCI-60 cell line screen, 48 h
786-0 renal = tested on: 786-0 renal
A498 renal = tested on: A498 renal
A549 NSCLC = tested on: A549 NSCLC
ACHN renal = tested on: ACHN renal
BT-549 breast = tested on: BT-549 breast
CAKI-1 renal = tested on: CAKI-1 renal
CCRF-CEM leukemia = tested on: CCRF-CEM leukemia
COLO 205 colon = tested on: COLO 205 colon
DU-145 prostate = tested on: DU-145 prostate
EKVX NSCLC = tested on: EKVX NSCLC
HCC-2998 colon = tested on: HCC-2998 colon
HCT-116 colon = tested on: HCT-116 colon
HCT-15 colon = tested on: HCT-15 colon
HOP-62 NSCLC = tested on: HOP-62 NSCLC
HOP-92 NSCLC = tested on: HOP-92 NSCLC
HS 578T breast = tested on: HS 578T breast
HT29 colon = tested on: HT29 colon
IGROV1 ovarian = tested on: IGROV1 ovarian
K-562 leukemia = tested on: K-562 leukemia
KM12 colon = tested on: KM12 colon
LOX IMVI melanoma = tested on: LOX IMVI melanoma
M14 melanoma = tested on: M14 melanoma
MALME-3M melanoma = tested on: MALME-3M melanoma
MCF7 breast = tested on: MCF7 breast
MDA-MB-231 breast = tested on: MDA-MB-231 breast
MDA-MB-435 = tested on: MDA-MB-435
MDA-N = tested on: MDA-N
MOLT-4 leukemia = tested on: MOLT-4 leukemia
NCI-H226 lung = tested on: NCI-H226 lung
NCI-H23 lung = tested on: NCI-H23 lung
NCI-H460 lung = tested on: NCI-H460 lung
NCI-H522 lung = tested on: NCI-H522 lung
NCI/ADR-RES ovarian = tested on: NCI/ADR-RES ovarian
OVCAR-4 ovarian = tested on: OVCAR-4 ovarian
OVCAR-5 ovarian = tested on: OVCAR-5 ovarian
OVCAR-8 ovarian = tested on: OVCAR-8 ovarian
PC-3 prostate = tested on: PC-3 prostate
RPMI-8226 leukemia = tested on: RPMI-8226 leukemia
RXF 393 renal = tested on: RXF 393 renal
SF-268 CNS = tested on: SF-268 CNS
SF-295 CNS = tested on: SF-295 CNS
SF-539 CNS = tested on: SF-539 CNS
SK-MEL-2 melanoma = tested on: SK-MEL-2 melanoma
SK-MEL-28 melanoma = tested on: SK-MEL-28 melanoma
SK-MEL-5 melanoma = tested on: SK-MEL-5 melanoma
SK-OV-3 ovarian = tested on: SK-OV-3 ovarian
SN12C renal = tested on: SN12C renal
SNB-19 CNS = tested on: SNB-19 CNS
SNB-75 CNS = tested on: SNB-75 CNS
SR leukemia = tested on: SR leukemia
SW-620 colon = tested on: SW-620 colon
T-47D breast = tested on: T-47D breast
TK-10 renal = tested on: TK-10 renal
U251 CNS = tested on: U251 CNS
UACC-257 melanoma = tested on: UACC-257 melanoma
UACC-62 melanoma = tested on: UACC-62 melanoma
UO-31 renal = tested on: UO-31 renal
HL-60(TB) leukemia = tested on: HL-60(TB) leukemia
OVCAR-3 ovarian = tested on: OVCAR-3 ovarian

For CCOC(=O)/C=C/C1OC(C)(C)OC1/C=C/C(=O)OCC (stereo not drawn), the TGI (786-0 renal) was over 100 µM, the TGI (A498 renal) was over 100 µM and the TGI (A549 NSCLC) was over 100 µM. The TGI (ACHN renal) was over 100 µM, the TGI (BT-549 breast) was over 100 µM and the TGI (CAKI-1 renal) was 54.7 µM. It also gave a TGI (CCRF-CEM leukemia) of 57.7 µM, a TGI (COLO 205 colon) of over 100 µM and a TGI (DU-145 prostate) of over 100 µM. The TGI (EKVX NSCLC) was 94.9 µM, the TGI (HCC-2998 colon) was 47.4 µM and the TGI (HCT-116 colon) was over 100 µM. It also gave a TGI (HCT-15 colon) of 64.2 µM, a TGI (HOP-62 NSCLC) of over 100 µM and a TGI (HOP-92 NSCLC) of 41.8 µM. For the same molecule, the TGI (HS 578T breast) was over 100 µM, the TGI (HT29 colon) was 57.6 µM and the TGI (IGROV1 ovarian) was over 100 µM. The TGI (K-562 leukemia) was 48.4 µM, the TGI (KM12 colon) was 70.7 µM and the TGI (LOX IMVI melanoma) was over 100 µM. It also gave a TGI (M14 melanoma) of over 100 µM, a TGI (MALME-3M melanoma) of over 100 µM and a TGI (MCF7 breast) of over 100 µM. For the same molecule, the TGI (MDA-MB-231 breast) was over 100 µM, the TGI (MDA-MB-435) was over 100 µM and the TGI (MDA-N) was over 100 µM. The TGI (MOLT-4 leukemia) was 63.3 µM, the TGI (NCI-H226 lung) was over 100 µM and the TGI (NCI-H23 lung) was over 100 µM. For the same molecule, the TGI (NCI-H460 lung) was 48.9 µM, the TGI (NCI-H522 lung) was 51.1 µM and the TGI (NCI/ADR-RES ovarian) was over 100 µM. The TGI (OVCAR-4 ovarian) was over 100 µM, the TGI (OVCAR-5 ovarian) was over 100 µM and the TGI (OVCAR-8 ovarian) was 82.7 µM. It also gave a TGI (PC-3 prostate) of over 100 µM, a TGI (RPMI-8226 leukemia) of 47.7 µM and a TGI (RXF 393 renal) of over 100 µM. The TGI (SF-268 CNS) was over 100 µM, the TGI (SF-295 CNS) was over 100 µM and the TGI (SF-539 CNS) was over 100 µM. It also gave a TGI (SK-MEL-2 melanoma) of over 100 µM, a TGI (SK-MEL-28 melanoma) of 87.7 µM and a TGI (SK-MEL-5 melanoma) of over 100 µM. The TGI (SK-OV-3 ovarian) was over 100 µM, the TGI (SN12C renal) was over 100 µM and the TGI (SNB-19 CNS) was over 100 µM. It also gave a TGI (SNB-75 CNS) of over 100 µM, a TGI (SR leukemia) of 43.3 µM and a TGI (SW-620 colon) of 49.2 µM. The TGI (T-47D breast) was over 100 µM, the TGI (TK-10 renal) was over 100 µM and the TGI (U251 CNS) was over 100 µM. It also gave a TGI (UACC-257 melanoma) of over 100 µM, a TGI (UACC-62 melanoma) of over 100 µM and a TGI (UO-31 renal) of over 100 µM.
With CCOC(=O)c1cc2c([nH]1)c(OC(C)=O)cc1c2ccn1Cc1ccccc1 the TGI (786-0 renal) was over 100 µM, the TGI (A498 renal) was over 100 µM and the TGI (A549 NSCLC) was over 100 µM. For the same molecule, the TGI (BT-549 breast) was over 100 µM, the TGI (CAKI-1 renal) was over 100 µM and the TGI (CCRF-CEM leukemia) was over 100 µM. The TGI (COLO 205 colon) was over 100 µM, the TGI (DU-145 prostate) was over 100 µM and the TGI (EKVX NSCLC) was over 100 µM. The TGI (HCC-2998 colon) was over 100 µM, the TGI (HCT-116 colon) was over 100 µM and the TGI (HCT-15 colon) was over 100 µM. It also gave a TGI (HL-60(TB) leukemia) of over 100 µM, a TGI (HOP-62 NSCLC) of over 100 µM and a TGI (HOP-92 NSCLC) of over 100 µM. It also gave a TGI (HS 578T breast) of over 100 µM, a TGI (HT29 colon) of over 100 µM and a TGI (IGROV1 ovarian) of over 100 µM. The TGI (K-562 leukemia) was over 100 µM, the TGI (KM12 colon) was over 100 µM and the TGI (LOX IMVI melanoma) was over 100 µM. For the same molecule, the TGI (M14 melanoma) was over 100 µM, the TGI (MALME-3M melanoma) was over 100 µM and the TGI (MCF7 breast) was over 100 µM. The TGI (MDA-MB-231 breast) was over 100 µM, the TGI (MDA-MB-435) was over 100 µM and the TGI (MDA-N) was over 100 µM. It also gave a TGI (MOLT-4 leukemia) of over 100 µM, a TGI (NCI-H226 lung) of over 100 µM and a TGI (NCI-H23 lung) of over 100 µM. For the same molecule, the TGI (NCI-H460 lung) was over 100 µM, the TGI (NCI/ADR-RES ovarian) was over 100 µM and the TGI (OVCAR-3 ovarian) was over 100 µM. It also gave a TGI (OVCAR-4 ovarian) of over 100 µM, a TGI (OVCAR-5 ovarian) of over 100 µM and a TGI (OVCAR-8 ovarian) of over 100 µM. The TGI (PC-3 prostate) was over 100 µM, the TGI (RPMI-8226 leukemia) was over 100 µM and the TGI (RXF 393 renal) was over 100 µM. The TGI (SF-268 CNS) was over 100 µM, the TGI (SF-295 CNS) was over 100 µM and the TGI (SF-539 CNS) was over 100 µM. The TGI (SK-MEL-2 melanoma) was over 100 µM, the TGI (SK-MEL-28 melanoma) was over 100 µM and the TGI (SK-MEL-5 melanoma) was over 100 µM. For the same molecule, the TGI (SK-OV-3 ovarian) was over 100 µM, the TGI (SN12C renal) was over 100 µM and the TGI (SNB-19 CNS) was over 100 µM. It also gave a TGI (SNB-75 CNS) of over 100 µM, a TGI (SR leukemia) of over 100 µM and a TGI (SW-620 colon) of over 100 µM. The TGI (T-47D breast) was over 100 µM, the TGI (U251 CNS) was over 100 µM and the TGI (UACC-257 melanoma) was over 100 µM. It also gave a TGI (UACC-62 melanoma) of over 100 µM and a TGI (UO-31 renal) of over 100 µM.
